Experiments:
[1] = target: T1, human RORγt (Ligand Binding Domain) (Homo sapiens, UniProt P51449); assay: Fluorescence Polarization (FP) Assay; conditions: Fluorescence Polarization (FP) Assay; values given as upper bounds of activity ranges; read-out: FP activity range
T1 construct: purchased Crelux (Planegg, Germany) batch no PC5032-1
T1 sequence (P51449 269-508 limits assumed): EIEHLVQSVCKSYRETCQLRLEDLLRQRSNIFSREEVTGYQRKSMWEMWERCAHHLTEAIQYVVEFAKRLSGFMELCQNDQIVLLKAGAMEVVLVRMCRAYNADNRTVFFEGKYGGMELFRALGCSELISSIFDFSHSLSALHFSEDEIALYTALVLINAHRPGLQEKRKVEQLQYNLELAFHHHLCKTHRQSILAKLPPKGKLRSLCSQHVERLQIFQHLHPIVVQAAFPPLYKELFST
Outline: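 Binding to the ligand pocket followed by fluorescence polarization with a TAMRA-tagged RORγt ligand probe of 910 g/mole. Negative control wells received DMSO only.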

[2] = target: T2, yeast Gal4-DNA binding domain fused to the ligand binding domain of human RORγ (Homo sapiens, UniProt P51449); assay: RORγ Reporter Assay (Gal4); format: cell-based; conditions: values given as lower bounds of ranges; for Gal4 activity range @ 0.1 μM (% inhibition): RORγ Reporter Assay (Gal4) at 0.1 μM; for Gal4 activity range @ 1 μM (% inhibition): RORγ Reporter Assay (Gal4) at 1 μM
T2 construct: host or cells: HEK293t
T2 sequence (P51449 269-508 limits assumed): T1 sequence (P51449 269-508 limits assumed)
Outline: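 Compound at final 1,000 or 100 nM (0.1% DMSO, triplicate) was added to the transfected HEK293t cells carrying a Gal4-UAS luciferase reporter for 24 h at 37 °C, 10% charcoal-stripped FBS. Activity reduction expressed as percent of vehicle-only luciferase signal.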

Row | SMILES | IC50 [1] | Gal4 activity range @ 0.1 μM (% inhibition) [2] | Gal4 activity range @ 1 μM (% inhibition) [2]
1 | COc1ccc(CNc2ncnc(N3CCCC3c3ccc(C(F)(F)F)cc3)c2F)cn1 (centres unmarked) [Example 114, 5-fluoro-N-[(6-methoxy-3-pyridyl)methyl]-6-[2-[4-(trifluoromethyl)phenyl]pyrrolidin-1-yl]pyrimidin-4-amine] | < 1 µM | >20 % inhibition | >80 % inhibition
2 | Fc1c(NCc2ccc(Cn3cncn3)cc2)ncnc1N1CCCC1c1ccc(C(F)(F)F)cc1 (centres unmarked) [Example 115, 5-fluoro-N-[[4-(1,2,4-triazol-1-ylmethyl)phenyl]methyl]-6-[2-[4-(trifluoromethyl)phenyl]pyrrolidin-1-yl]pyrimidin-4-amine] | < 0.5 µM | >50 % inhibition | >80 % inhibition
3 | COc1ccc(CN(C)c2ncnc(N3CCCC3c3ccc(C(F)(F)F)cc3)c2F)cn1 (centres unmarked) [Example 116, 5-fluoro-N-[(6-methoxy-3-pyridyl)methyl]-N-methyl-6-[2-[4-(trifluoromethyl)phenyl]pyrrolidin-1-yl]pyrimidin-4-amine] | < 1 µM | >20 % inhibition | >50 % inhibition
4 | O=C(O)Cc1ccc(CNc2ncnc(N3CCC[C@H]3c3ccc(C(F)(F)F)cc3)c2F)cc1 [Example 118, 2-[4-[[[5-fluoro-6-[(2S)-2-[4-(trifluoromethyl)phenyl]pyrrolidin-1-yl]pyrimidin-4-yl]amino]methyl]phenyl]acetic acid] | < 10 µM | >0 % inhibition | >20 % inhibition
5 | O=C(O)Cc1ccc(CNc2ncnc(N3CCOCC3c3ccc(C(F)(F)F)cc3)c2F)cc1 (centres unmarked) [Example 119, 2-[4-[[[5-fluoro-6-[3-[4-(trifluoromethyl)phenyl]morpholin-4-yl]pyrimidin-4-yl]amino]methyl]phenyl]acetic acid] | < 1 µM | >20 % inhibition | >80 % inhibition
6 | CC(C)CC(Nc1ncnc(N2CCCC2c2ccc(C(F)(F)F)cc2)c1F)c1nnn[nH]1 (centres unmarked) [Example 123, 5-fluoro-N-[3-methyl-1-(1H-tetrazol-5-yl)butyl]-6-[2-[4-(trifluoromethyl)phenyl]pyrrolidin-1-yl]pyrimidin-4-amine] | < 10 µM | >0 % inhibition | >20 % inhibition
7 | Fc1c(NCc2ccc(C(F)(F)F)nc2)ncnc1N1CCCC1c1ccc(C(F)(F)F)cc1 (centres unmarked) [Example 126, 5-fluoro-6-[2-[4-(trifluoromethyl)phenyl]pyrrolidin-1-yl]-N-[[6-(trifluoromethyl)-3-pyridyl]methyl]pyrimidin-4-amine] | < 2 µM | >20 % inhibition | >50 % inhibition
8 | OCCc1ccc(CNc2ncnc(N3CCCC3c3ccc(C(F)(F)F)cc3)c2F)cc1 (centres unmarked) [Example 128, 2-[4-[[[5-fluoro-6-[2-[4-(trifluoromethyl)phenyl]pyrrolidin-1-yl]pyrimidin-4-yl]amino]methyl]phenyl]ethanol] | < 0.5 µM | >50 % inhibition | –
9 | OC1(CNc2ncnc(N3CCCC3c3ccc(C(F)(F)F)cc3)c2F)CCOCC1 (centres unmarked) [Example 129, 4-[[[5-fluoro-6-[2-[4-(trifluoromethyl)phenyl]pyrrolidin-1-yl]pyrimidin-4-yl]amino]methyl]tetrahydropyran-4-ol] | < 0.5 µM | >50 % inhibition | –
10 | COc1ccnc(CNc2ncnc(N3CCCC3c3ccc(C(F)(F)F)cc3)c2F)c1 (centres unmarked) [Example 131, 5-fluoro-N-[(4-methoxy-2-pyridyl)methyl]-6-[2-[4-(trifluoromethyl)phenyl]pyrrolidin-1-yl]pyrimidin-4-amine] | < 2 µM | >20 % inhibition | –
11 | Fc1c(NCc2ccncc2)ncnc1N1CCCC1c1ccc(C(F)(F)F)cc1 (centres unmarked) [Example 140, 5-fluoro-N-(4-pyridylmethyl)-6-[2-[4-(trifluoromethyl)phenyl]pyrrolidin-1-yl]pyrimidin-4-amine] | < 0.5 µM | >20 % inhibition | –
12 | O=C(O)CC1CCC(CNc2ncnc(N3CCCC3c3ccc(C(F)(F)F)cc3)c2F)CC1 (centres unmarked) [Example 148, 2-[4-[[[5-fluoro-6-[2-[4-(trifluoromethyl)phenyl]pyrrolidin-1-yl]pyrimidin-4-yl]amino]methyl]cyclohexyl]acetic acid] | < 1 µM | >50 % inhibition | –
13 | CC1(CNc2ncnc(N3CCCC3c3ccc(C(F)(F)F)cc3)c2F)CCC1 (centres unmarked) [Example 152, 5-fluoro-N-[(1-methylcyclobutyl)methyl]-6-[2-[4-(trifluoromethyl)phenyl]pyrrolidin-1-yl]pyrimidin-4-amine] | < 0.5 µM | >0 % inhibition | –
14 | CC1(CNc2ncnc(N3CCC[C@@H]3c3ccc(C(F)(F)F)cc3)c2F)CCOCC1 [Example 161, 5-fluoro-N-[(4-methyltetrahydropyran-4-yl)methyl]-6-[(2R)-2-[4-(trifluoromethyl)phenyl]pyrrolidin-1-yl]pyrimidin-4-amine] | < 0.5 µM | >20 % inhibition | –
15 | Fc1c(NCC2CCSCC2)ncnc1N1CCC[C@@H]1c1ccc(C(F)(F)F)cc1 [Example 164, 5-fluoro-N-(tetrahydrothiopyran-4-ylmethyl)-6-[(2R)-2-[4-(trifluoromethyl)phenyl]pyrrolidin-1-yl]pyrimidin-4-amine] | < 0.5 µM | >20 % inhibition | –
16 | OC1(CNc2ncnc(N3CCC[C@@H]3c3ccc(C(F)(F)F)cc3)c2F)CCSC1 (stereo partly drawn) [Example 165, 3-[[[5-fluoro-6-[(2R)-2-[4-(trifluoromethyl)phenyl]pyrrolidin-1-yl]pyrimidin-4-yl]amino]methyl]tetrahydrothiophen-3-ol] | < 0.5 µM | >50 % inhibition | –
17 | OC1(CNc2ncnc(N3CCC[C@@H]3c3ccc(C(F)(F)F)cc3)c2F)CCCCCC1 [Example 167, 1-[[[5-fluoro-6-[(2R)-2-[4-(trifluoromethyl)phenyl]pyrrolidin-1-yl]pyrimidin-4-yl]amino]methyl]cycloheptanol] | < 0.5 µM | >0 % inhibition | –
18 | COC1CCCCC1CNc1ncnc(N2CCC[C@@H]2c2ccc(C(F)(F)F)cc2)c1F (stereo partly drawn) [Example 168, 5-fluoro-N-[(2-methoxycyclohexyl)methyl]-6-[(2R)-2-[4-(trifluoromethyl)phenyl]pyrrolidin-1-yl]pyrimidin-4-amine] | < 0.5 µM | >50 % inhibition | –
19 | OC1(CNc2ncnc(N3CCC[C@@H]3c3ccc(C(F)(F)F)cc3)c2F)CCSCC1 [Example 169, 4-[[[5-fluoro-6-[(2R)-2-[4-(trifluoromethyl)phenyl]pyrrolidin-1-yl]pyrimidin-4-yl]amino]methyl]tetrahydrothiopyran-4-o1] | < 0.5 µM | >0 % inhibition | –
20 | NS(=O)(=O)c1ccc(CNc2ncnc(N3CCC[C@@H]3c3ccc(C(F)(F)F)cc3)c2F)cc1 [Example 182, 4-[[[5-fluoro-6-[(2R)-2-[4-(trifluoromethyl)phenyl]pyrrolidin-1-yl]pyrimidin-4-yl]amino]methyl]benzenesulfonamide] | < 0.5 µM | >50 % inhibition | –
21 | Fc1c(NCc2ccc(Cl)nc2)ncnc1N1CCC[C@@H]1c1ccc(C(F)(F)F)cc1 [Example 183, N-[(6-chloro-3-pyridyl)methyl]-5-fluoro-6-[(2R)-2-[4-(trifluoromethyl)phenyl]pyrrolidin-1-yl]pyrimidin-4-amine] | < 0.5 µM | >50 % inhibition | –
22 | Fc1c(NCc2ccsc2)ncnc1N1CCC[C@@H]1c1ccc(C(F)(F)F)cc1 [Example 185, 5-fluoro-N-(3-thienylmethyl)-6-[(2R)-2-[4-(trifluoromethyl)phenyl]pyrrolidin-1-yl]pyrimidin-4-amine] | < 1 µM | >50 % inhibition | –
23 | Fc1c(NCC2CCCOC2)ncnc1N1CCC[C@@H]1c1ccc(C(F)(F)F)cc1 (stereo partly drawn) [Example 186, 5-fluoro-N-(tetrahydropyran-3-ylmethyl)-6-[(2R)-2-[4-(trifluoromethyl)phenyl]pyrrolidin-1-yl]pyrimidin-4-amine] | < 0.5 µM | >0 % inhibition | –

Reference: US10689383B2, “Optionally fused heterocyclyl-substituted derivatives of pyrimidine useful for the treatment of inflammatory, metabolic, oncologic and autoimmune diseases” (NUEVOLUTION A/S, priority 2014, dated 2020)
